Reference: patent US20170050957A1, “4-AMINO-6-(HETEROCYCLIC)PICOLINATES AND 6-AMINO-2-(HETEROCYCLIC)PYRIMIDINE-4-CARBOXYLATES AND THEIR USE AS HERBICIDES” (Dow AgroSciences LLC, priority 2013, published 2017)
Where two headings read alike, the source gives them in different places.

Legend:
[1] = tested on: Key Broadleaf Weed and Crop Species; assay: Post-emergent Test II herbicidal activity (Table 15); assay type: in vivo; conditions: post-emergence, 336 h, 14 d; for pest or weed control at 35 g/ha: 35 g ai/ha; for pest or weed control at 70 g/ha: 70 g ai/ha; for pest or weed control at 140 g/ha: 140 g ai/ha
How it was run: (§1)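 Visual injury rating (0 = none, 100% = complete kill) made 14 d after treatment, relative to untreated plants. Compounds in an acetone/DMSO/aqueous crop-oil/surfactant spray, at top rate and serial 1/2×-1/16× rates, were applied at 187 L/ha overhead to first-second true leaf plants raised 7-21 d in greenhouse.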

[2] = tested on: Key Grass and Sedge Weeds as well as Grass Crops; assay: Post-emergent Test II herbicidal activity (Table 16); assay type: in vivo; conditions: post-emergence, 336 h, 14 d; for pest or weed control at 35 g/ha: 35 g ai/ha; for pest or weed control at 70 g/ha: 70 g ai/ha; for pest or weed control at 140 g/ha: 140 g ai/ha
How it was run: as §1

[3] = Abutilon theophrasti, velvetleaf (Abutilon theophrasti), read-out: Visual Growth Reduction (%) 14 Days After Application, ABUTH
[4] = Amaranthus retroflexus, redroot pigweed (Amaranthus retroflexus), read-out: Visual Growth Reduction (%) 14 Days After Application, AMARE
[5] = Brassica napus, oilseed rape, canola (Brassica napus), read-out: Visual Growth Reduction (%) 14 Days After Application, BRSNN
[6] = Chenopodium album, lambsquarters (Chenopodium album), read-out: Visual Growth Reduction (%) 14 Days After Application, CHEAL
[7] = Euphorbia heterophylla, wild poinsettia (Euphorbia heterophylla), read-out: Visual Growth Reduction (%) 14 Days After Application, EPHHL
[8] = Helianthus annuus, sunflower (Helianthus annuus), read-out: Visual Growth Reduction (%) 14 Days After Application, HELAN
[9] = Cyperus esculentus, yellow nutsedge (Cyperus esculentus), read-out: Visual Growth Reduction (%) 14 Days After Application, CYPES
[10] = Echinochloa crus-galli, barnyardgrass (Echinochloa crus-galli), read-out: Visual Growth Reduction (%) 14 Days After Application, ECHCG
[11] = Oryza sativa, rice (Oryza sativa), read-out: Visual Growth Reduction (%) 14 Days After Application, ORYSA
[12] = Setaria faberi, giant foxtail (Setaria faberi), read-out: Visual Growth Reduction (%) 14 Days After Application, SETFA
[13] = Triticum aestivum, wheat, spring (Triticum aestivum), read-out: Visual Growth Reduction (%) 14 Days After Application, TRZAS
[14] = Zea mays, maize, corn (Zea mays), read-out: Visual Growth Reduction (%) 14 Days After Application, ZEAMX

**Q.** For `COc1c(C(=O)O)nc(-c2ccc3cc[nH]c3c2F)c(F)c1N` [Compound 1.17], which pest or weed control at 35 g/ha [1, 3] is on record?
**A.** 45 to 59%

**Q.** And the pest or weed control at 70 g/ha [1, 3]?
**A.** 45 to 59%

**Q.** What about the pest or weed control at 140 g/ha [1, 3] of the same molecule?
**A.** 60 to 74%

**Q.** What about the pest or weed control at 35 g/ha [1, 4] of the same molecule?
**A.** 95 to 100%

**Q.** And the pest or weed control at 70 g/ha [1, 4]?
**A.** 95 to 100%

**Q.** What about the pest or weed control at 140 g/ha [1, 4] of the same molecule?
**A.** 95 to 100%

**Q.** And the pest or weed control at 35 g/ha [1, 5]?
**A.** 95 to 100%

**Q.** What about the pest or weed control at 70 g/ha [1, 5] of the same molecule?
**A.** 95 to 100%

**Q.** And the pest or weed control at 140 g/ha [1, 5]?
**A.** 95 to 100%

**Q.** And the pest or weed control at 35 g/ha [1, 6]?
**A.** 95 to 100%

**Q.** What about the pest or weed control at 70 g/ha [1, 6] of the same molecule?
**A.** 95 to 100%

**Q.** And the pest or weed control at 140 g/ha [1, 6]?
**A.** 95 to 100%

**Q.** What about the pest or weed control at 35 g/ha [1, 7] of the same molecule?
**A.** 95 to 100%

**Q.** And the pest or weed control at 70 g/ha [1, 7]?
**A.** 95 to 100%

**Q.** What about the pest or weed control at 140 g/ha [1, 7] of the same molecule?
**A.** 95 to 100%

**Q.** What about the pest or weed control at 35 g/ha [1, 8] of the same molecule?
**A.** 95 to 100%

**Q.** And the pest or weed control at 70 g/ha [1, 8]?
**A.** 95 to 100%

**Q.** And the pest or weed control at 140 g/ha [1, 8]?
**A.** 95 to 100%

**Q.** And the pest or weed control at 35 g/ha [2, 9]?
**A.** 45 to 59%

**Q.** What about the pest or weed control at 70 g/ha [2, 9] of the same molecule?
**A.** 45 to 59%

**Q.** And the pest or weed control at 140 g/ha [2, 9]?
**A.** 45 to 59%

**Q.** And the pest or weed control at 35 g/ha [2, 10]?
**A.** 85 to 94%

**Q.** What about the pest or weed control at 70 g/ha [2, 10] of the same molecule?
**A.** 85 to 94%

**Q.** What about the pest or weed control at 140 g/ha [2, 10] of the same molecule?
**A.** 85 to 94%

**Q.** What about the pest or weed control at 35 g/ha [2, 11] of the same molecule?
**A.** 0 to 29%

**Q.** What about the pest or weed control at 70 g/ha [2, 11] of the same molecule?
**A.** 0 to 29%

**Q.** And the pest or weed control at 140 g/ha [2, 11]?
**A.** 0 to 29%

**Q.** What about the pest or weed control at 35 g/ha [2, 12] of the same molecule?
**A.** 75 to 84%

**Q.** And the pest or weed control at 70 g/ha [2, 12]?
**A.** 85 to 94%

**Q.** What about the pest or weed control at 140 g/ha [2, 12] of the same molecule?
**A.** 85 to 94%

**Q.** What about the pest or weed control at 35 g/ha [2, 13] of the same molecule?
**A.** 60 to 74%

**Q.** And the pest or weed control at 70 g/ha [2, 13]?
**A.** 60 to 74%

**Q.** What about the pest or weed control at 140 g/ha [2, 13] of the same molecule?
**A.** 60 to 74%

**Q.** What about the pest or weed control at 35 g/ha [2, 14] of the same molecule?
**A.** 60 to 74%

**Q.** And the pest or weed control at 70 g/ha [2, 14]?
**A.** 75 to 84%

**Q.** And the pest or weed control at 140 g/ha [2, 14]?
**A.** 75 to 84%

**Q.** What about the melting point of the same molecule?
**A.** 133 to 140 °C
